We go through one compound from patent publication US20240261242A1, “METHODS OF INTRAVENOUSLY ADMINISTERING SOTALOL” (AltaThera Pharmaceuticals LLC, priority 2018, published 2024).

The nature of data set [1]: example IV sotalol treatment protocols with QTc interval monitoring. The format is in vivo, human. As for the experimental part: An example sotalol treatment protocol for a patient experiencing AF and who is currently in normal sinus rhythm (which patient could have resumed normal sinus rhythm spontaneously, or by way of chemical cardioversion, or electrocardioversion) is described herein. The patient is admitted to a hospital or other facility capable of providing cardiac resuscitation and continuous electrocardiographic monitoring. The patient's creatinine clearance is determined to be 60-89 mL/min (mild renal impairment). The patient is connected to an electrocardiographic and an initial QTc is determined to be less than 450 ms. If the patient were to be administered multiple sequential oral doses, the physician would have selected an oral sotalol dosing regimen of 80 mg at a 12-hour interval. However, due to the patient's NPO status, the physician determines the patient should instead be administered an IV sotalol dosing regimen as a substitute for the selected oral dosing regimen. IV doses in an amount of 75 mg sotalol hydrochloride are administered to the patient at 12-hour interval as a substitute for oral dosing. It is noted that notwithstanding the patient's mild kidney impairment, no adjustment to the IV dosing amount or interval is made. That is, even though the patient's CrCl is lower than normal, neither the dose is adjusted lower nor the dosing interval increased to accommodate for the mild renal impairment. The 75 mg IV dose is administered to the patient over a period of 5 hours. The patient's QTc interval is measured, along with heart rate and blood pressure at selected times to ensure that the patient is tolerating the drug. […] Once it is determined that the patient/subject is capable of tolerating the sotalol, one or more subsequent doses of sotalol hydrochloride in an amount of 75 mg is administered to the subject at a 12-hour interval. The patient's QTc interval can continue to be monitored.
An example sotalol treatment protocol for a patient experiencing VT who is not currently in normal sinus rhythm is described herein. The patient is admitted to a hospital or other facility capable of providing cardiac resuscitation and continuous electrocardiographic monitoring. The patient's creatinine clearance is determined to be 10-29 mL/min (severe renal impairment). The patient is connected to an electrocardiographic and an initial QTc is determined to be less than 450 ms. If the patient were to be administered multiple sequential oral doses, the physician would have selected an oral sotalol dosing regimen of 120 mg at a 48-hour interval. However, the physician determines the patient should instead be administered an IV sotalol dosing regimen as a substitute for the selected oral dosing regimen. IV doses in an amount of 105 mg sotalol hydrochloride are administered to the patient at 48-hour interval as a substitute for oral dosing. The 105 mg IV dose is administered to the patient over a period of 5 hours. The patient's QTc interval is measured, along with heart rate and blood pressure at selected times to ensure that the patient is tolerating the drug. […] Once it is determined that the patient/subject is capable of tolerating the sotalol, one or more subsequent doses of sotalol hydrochloride in an amount of 105 mg is administered to the subject at a 48-hour interval. The patient's QTc interval can continue to be monitored.
An example sotalol treatment protocol for a patient with atrial flutter (AFL) and persistent atrial fibrillation who is not currently in normal sinus rhythm is described herein. The patient is admitted to a hospital or other facility capable of providing cardiac resuscitation and continuous electrocardiographic monitoring. The patient's creatinine clearance is determined to be ≥90 mL/min. The patient is connected to an electrocardiographic and an initial QTc is determined to be less than 450 ms. […]

The conditions of data set [2]: cited from earlier work.
For data set [3] the following is noted: cited from earlier work. This is another data set of the same source.
[4] abbreviates: Example 2: 75 mg IV over 5 hours at 12-hour interval, CrCl 60-89 mL/min, AF patient in sinus rhythm.
Where [5] appears, read: Example 5: 105 mg IV over 5 hours at 48-hour interval, CrCl 10-29 mL/min, VT patient.
Where [6] appears, read: Example 6: 150 mg IV over 5 hours at 12-hour interval, CrCl ≥90 mL/min, AFL and persistent AF patient.
Where [7] appears, read: Example 7: 112.5 mg IV over 5 hours at 12-hour interval, then escalated to 150 mg, CrCl 60-89 mL/min, PVC patient.

Molecules are shown by their SMILES. Where only a bound is given, the exact number is not on record here.

`CC(C)NCC(O)c1ccc(NS(C)(=O)=O)cc1.Cl` (centres unmarked) [sotalol hydrochloride, d,1-N-[4-[1-hydroxy-2-[(1-methylethyl)amino]ethyl]phenyl] methane-sulfonamide monohydrochloride]: the QTc interval in data set [1] (setting [4]), in data set [1] (setting [5]), in data set [1] (setting [6]) and in data set [1] (setting [7]) was no more than 500 ms throughout. Besides, the ΔQTc result in data set [1] (setting [4]), in data set [1] (setting [5]), in data set [1] (setting [6]) and in data set [1] (setting [7]) was “less than 20%” each time. Also, the “time to steady-state plasma levels and maximum QTc prolongation” value in data set [2] (oral administration, twice daily (after 5-6 doses)) was 3 days. Besides, the bioavailable in data set [2] (oral, taken on an empty stomach) is reported as roughly 100%. For the same compound, in data set [3], the solubility result is “soluble in water, propylene glycol, and ethanol”.
